Consider three compounds from patent publication US12551465B2 (priority 2020, dated 2026).

Where two headings read alike, the source gives them in different places. Marks after values point to notes of the source that are not given here.

Experiment in series [1]: not given
This is another data set of the same source.

Series [2] deals with healthy volunteers. Put plainly: Electrocardiogram (QTcF, QRS) after repeated dose in healthy volunteers (Example 2).
Experimental: (§3) The electrocardiogram is checked after resting in a supine position in a quiet environment (e.g., without distracting factors) for at least 5 minutes. A sticky pad is attached to the body, and the pad has a thin wire connected to a machine that records measurements of the heart and prints a report. Each time an electrocardiogram is performed, the clinical trial staff performs three electrocardiogram recordings. The time between ECG recordings should not exceed 2 minutes, and the total time should not exceed 10 minutes.
(§4) Primary assessment variables were safety, tolerability and side effects, and the clinical test items were 12-electrode electrocardiogram (including corrected QT interval (calculated by Fridericia formula) [QTc(F)]), QT interval, QRS interval, PR interval, and ventricular rate), vital signs (blood pressure, pulse, body temperature, respiration rate), hypersensitivity (determined by ECG recording and vital signs), clinical laboratory assessment (hematology, blood chemistry, urinalysis, etc.), and adverse events (including serious adverse events).
For participants in Cohort 4, electrocardiogram, pharmacodynamic assessment (echocardiography), etc. were performed on one day before administration, the day of administration (day 1), one day after administration (day 2), day 5 and day 6.
For participants in Cohort 5, electrocardiogram, pharmacodynamic assessment (echocardiography), etc. were performed on one day before administration, the day of administration (day 1), and day 5, day 14 and day 15.
For participants in Cohort 6, electrocardiogram, pharmacodynamic assessment (echocardiography), etc. were performed on one day before administration, the day of administration (day 1), and day 5 and day 14.
Series [3] deals with healthy volunteers. Put plainly: Electrocardiogram (QTcF, QRS) after single dose in healthy volunteers (Example 1).
Experimental: as §3
(§5) Primary assessment variables were safety, tolerability and side effects, and the clinical trial items were 12-electrode electrocardiogram (including corrected QT interval (calculated by Fridericia formula) [QTc(F)]), QT interval, QRS interval, PR interval, and ventricular rate), vital signs (blood pressure, pulse, body temperature, respiration rate), hypersensitivity (determined by ECG recording and vital signs), clinical laboratory assessment (hematology, blood chemistry, urinalysis, etc.), and adverse events (including serious adverse events).
For participants in Cohorts 1 to 3, electrocardiogram, pharmacodynamic assessment (echocardiography), etc. were performed on one day before administration, the day of administration (day 1), and for two days after administration (48 hours, day 2 and day 3).
Series [4] relates to patients with HOCM. The settings on record: Cohort 1 of Example 3, 200 mg once a day for 5 days. The text has this:
(§1) A total of up to 24 subjects were enrolled in 3 cohorts (8 per cohort). The subjects underwent at least one set of screening, hospital stay, and the end of study (EOS). Based on (1) safety data reviewed by the Safety Review Committee (SRC) and (2) consent to participate, subjects who underwent EOS in one cohort study could participate in another subsequent cohort study after a washout period of at least 7 days after they received the last investigational medicinal product on day 5 of the previous cohort study.
(§2) If subjects participated in another cohort study of Cohort 1 or 2, screening and inclusion/exclusion criteria were re-evaluated after the washout period. […] All subjects in each cohort were reviewed for safety data by the Safety Review Committee (SRC) after EOS before enrollment in the next dose cohort. The maximum duration of the clinical trial was over 15 weeks, including 9 weeks of screening, approximately 3 weeks of hospital stay and 3 weeks of EOS.

The subject of series [5] is patients with HOCM. Conditions: for Mean LVOT gradient at rest, actual measured value / Mean LVOT gradient at rest, decrease rate / Mean LVOT gradient with Valsalva maneuver, actual measured value / Mean LVOT gradient with Valsalva maneuver, decrease rate: drug (6) and placebo (2).
From the text: Echocardiography (heart scanning): In a state in which the patient is lying flat, a transducer is placed on the chest of the patient, and high-frequency sound waves (sound waves higher than those that humans can hear) are delivered into the body towards the heart. As the sound wave passes through other parts of the body, a part of the wave bounces back to the transducer, and the image of the heart and blood flow is interpreted by the ultrasound machine. This is to examine the heart's ability to eject blood, as well as heart abnormalities, including the atria, valves and major blood vessels.
as §1, §2
In the case of once-a-day administration, the test drug was administered in the morning of each administration day. In the case of twice-a-day administration, the test drug was administered at 12-hour intervals (in the morning and in the evening) on from day 1 to day 4 and administered only in the morning on day 5.
Subjects who meet the following criteria are considered eligible to participate in the clinical trial: • patients with a maximal left ventricular wall thickness of 15 mm or more (13 mm or more for patients with a family history); • patients with a left ventricular outflow tract (LVOT) gradient of 30 mmHg or more at rest, or an LVOT gradient of 50 mmHg or more after provocation (including provocation such as Valsalva maneuver, standing, post-exercise, etc.); or • patients with a left ventricular ejection fraction (LVEF) of 55% or more. Exclusion Criteria
Secondary assessment variables were pharmacokinetics including Cmax, and the left ventricular outflow track (LVOT) gradient and left ventricular ejection fraction (LVEF) by transthoracic echocardiography (TTE), as wells as blood B-natriuretic peptide (BNP) and troponin levels.
In Example 3 above, the left ventricular outflow track (LVOT) gradient), which is an effect indicator, was measured on day 5 of administration.

For series [6], the system named is healthy volunteers. As to the kind of experiment: Clinical safety and tolerability, repeated dose, healthy volunteers (Example 2).
From the text: (§6) In this study, a total of 24 subjects were randomized 1:1:1 to three cohorts and subjected to a total of four stages: screening, treatment period 1, drug withdrawal period, and treatment period 2. The ratio between the drug administration group and the non-drug-administration group (placebo) was 6:2.
as §4
For series [7], the system named is healthy volunteers. As to the kind of experiment: Clinical safety and tolerability, single dose, healthy volunteers (Example 1).
From the text: as §6, §5
Setting [8] is: Cohort 6 (control): 150 mg oral three times a day for 14 days, PK on day 14.
Where [9] appears, read: Cohort 6: racemate 150 mg three times a day for 14 days, day 14, only S(−)-cibenzoline moiety.
Where [10] appears, read: Cohort 3 (control): 150 mg oral three times a day, healthy volunteers.
Setting [11] is: Cohort 3: racemate 150 mg oral three times a day, only S(−)-cibenzoline moiety.
Where [12] appears, read: Cohort 4, 200 mg once a day, Day 5, 1.5 hr after administration.
The mark [13] stands for this setting: Cohort 4, 200 mg once a day, Day 5, 3 hr after administration.
Setting [14] is: Cohort 4, 200 mg once a day, Day 5, 8 hr after administration.
The mark [15] stands for this setting: Cohort 4, 200 mg once a day, Day 5 before administration.
Where [16] appears, read: Cohort 5, 300 mg once a day, Day 14, 1.5 hr after administration.
The mark [17] stands for this setting: Cohort 5, 300 mg once a day, Day 14, 3 hr after administration.
Where [18] appears, read: Cohort 5, 300 mg once a day, Day 14, 8 hr after administration.
[19] abbreviates: Cohort 5, 300 mg once a day, Day 14 before administration.
Setting [20] is: Cohort 1, 200 mg single dose, Day 1, 1.5 hr after administration.
Where [21] appears, read: Cohort 1, 200 mg single dose, Day 1, 3 hr after administration.
Setting [22] is: Cohort 1, 200 mg single dose, Day 1, 8 hr after administration.
Setting [23] is: Cohort 1, 200 mg single dose, Day 1 before administration (baseline).
[24] abbreviates: Cohort 2, 300 mg single dose, Day 1, 1.5 hr after administration.
The mark [25] stands for this setting: Cohort 2, 300 mg single dose, Day 1, 3 hr after administration.
[26] abbreviates: Cohort 2, 300 mg single dose, Day 1, 8 hr after administration.
Setting [27] is: Cohort 2, 300 mg single dose, Day 1 before administration (baseline).
Where [28] appears, read: HOCM Cohort 1, 200 mg once a day, before administration (day 5), before unblinding: drug (6) and placebo (2).
Setting [29] is: HOCM Cohort 1, 200 mg once a day, day 5, 2.5 hours after administration.
[30] abbreviates: HOCM Cohort 1, 200 mg once a day, day 5, 6 hours after administration.

Consider `O=C(O)CCC(=O)O.c1ccc(C2(c3ccccc3)CC2C2=NCCN2)cc1` (racemic) [racemic cibenzoline succinate], for which the Cmax under setting [8] amounted to 608.1 ng/mL and the Cmax in series [1] (setting [10]) is recorded as 367.4 ng/mL. For the same compound, the Tmax under setting [8] was 1.3 h and the Tmax in series [1] (setting [10]) was 1.7 h. Besides, the “AUC (extract of only S(−)-cibenzoline moiety)” value (Cohort 6, day 14, only S(−)-cibenzoline moiety, simulation: 8-hour PK data multiplied by 3) is recorded as “(4732.2)* ng · hr/mL” and the “AUC (extract of only S(−)-cibenzoline moiety)” value in series [1] (setting [11]) is on record as “(3610.3) ng · hr/mL”. Further, the AUC (Cohort 6: 150 mg three times a day for 14 days, simulation: 8-hour day 14 PK data multiplied by 3) is recorded as 8876.4* ng · hr/mL and the AUC in series [1] (setting [10]) was found to be 7540.4 ng·h/mL. In addition, the “Cmax (extract of only S(−)-cibenzoline moiety)” value under setting [9] was “(334.2) ng/mL” and the “Cmax (extract of only S(−)-cibenzoline moiety)” value in series [1] (setting [11]) is recorded as “(193.2) ng/mL”. The “Tmax (extract of only S(−)-cibenzoline moiety)” value under setting [9] is listed as “(1.0) h” and the “Tmax (extract of only S(−)-cibenzoline moiety)” value in series [1] (setting [11]) is “(1.7) h”.
Regarding `c1ccc(C2(c3ccccc3)C[C@@H]2C2=NCCN2)cc1` [S(−)-cibenzoline succinate], the QRS is 100 ms in the series on healthy volunteers [2] (setting [12]); 102 ms in the series with healthy volunteers [2] (setting [13]); 96 ms with healthy volunteers [2] (setting [14]); 92 ms in the series on healthy volunteers [2] (setting [15]); 124 ms in the series with healthy volunteers [2] (setting [16]); 130 ms in the series on healthy volunteers [2] (setting [17]). The QRS with healthy volunteers [2] (setting [18]) stood at 110 ms; in the series with healthy volunteers [2] (setting [19]) it was 106 ms; with healthy volunteers [3] (setting [20]), 102 ms; in the series on healthy volunteers [3] (setting [21]) it was 107 ms; in the series on healthy volunteers [3] (setting [22]), 99 ms; with healthy volunteers [3] (setting [23]), 92 ms. Also, the QRS is given as 107 ms in the series with healthy volunteers [3] (setting [24]), 116 ms in the series with healthy volunteers [3] (setting [25]), 107 ms with healthy volunteers [3] (setting [26]) and 101 ms in the series with healthy volunteers [3] (setting [27]). Also, the QTcF with healthy volunteers [2] (setting [12]) worked out at 417 ms; in the series with healthy volunteers [2] (setting [13]), 433 ms; in the series on healthy volunteers [2] (setting [14]), 417 ms; in the series with healthy volunteers [2] (setting [15]), 399 ms; in the series on healthy volunteers [2] (setting [16]) it was 435 ms; with healthy volunteers [2] (setting [17]) it was 444 ms. For the same compound, the QTcF in the series with healthy volunteers [2] (setting [18]) is given as 427 ms; in the series on healthy volunteers [2] (setting [19]), 404 ms; with healthy volunteers [3] (setting [20]), 412 ms; with healthy volunteers [3] (setting [21]), 426 ms; in the series with healthy volunteers [3] (setting [22]) it was 408 ms; in the series with healthy volunteers [3] (setting [23]) it was 406 ms. Besides, the QTcF in the series on healthy volunteers [3] (setting [24]) worked out at 419 ms; in the series on healthy volunteers [3] (setting [25]), 429 ms; in the series on healthy volunteers [3] (setting [26]), 415 ms; with healthy volunteers [3] (setting [27]) it was 411 ms. The drug-related adverse event result in the series with patients with HOCM [4] was “no drug-related adverse event occurred”. Besides, the “Mean LVOT gradient at rest” value in the series with patients with HOCM [5] (setting [28]) came to 90.18 mmHg. The “Mean LVOT gradient with Valsalva maneuver” value in the series with patients with HOCM [5] (setting [28]) came to 128.50 mmHg. The “Mean LVOT gradient at rest, actual measured value” in the series with patients with HOCM [5] (setting [29]) is on record as 77.09 mmHg; in the series on patients with HOCM [5] (setting [30]), 88.07 mmHg. The “Mean LVOT gradient at rest, decrease rate” value came to 15% in the series on patients with HOCM [5] (setting [29]) and 2% in the series on patients with HOCM [5] (setting [30]). The “Mean LVOT gradient with Valsalva maneuver, actual measured value” with patients with HOCM [5] (setting [29]) was determined as 98.22 mmHg; with patients with HOCM [5] (setting [30]), 126.52 mmHg. Besides, the figures for the “Mean LVOT gradient with Valsalva maneuver, decrease rate” value in the series on patients with HOCM [5] (setting [29]) and in the series on patients with HOCM [5] (setting [30]) were 24% and 2%, respectively.
For the compound `c1ccc(C2(c3ccccc3)C[C@@H]2C2=NCCN2)cc1` [S(−)-cibenzoline, S-2-(2,2-diphenylcyclopropyl)-4,5-dihydro-1H-imidazole], the safety and tolerability entry with healthy volunteers [6] (200 mg or 300 mg once a day, repeated dose, healthy volunteers) was “safe and tolerable”; in the series with healthy volunteers [7] (200 mg or 300 mg once a day, single dose, healthy volunteers), “safe and tolerable”. Further, the serious side effects entry is reported as “serious side effects did not occur” with healthy volunteers [6] (Cohorts 4 and 5 (200 mg once a day 5 days; 300 mg once a day 14 days) compared to Cohort 6); “no serious side effects occurred” in the series on healthy volunteers [7] (Cohorts 1 and 2 (200 mg or 300 mg once a day, single dose) compared to Cohort 3, healthy volunteers). The “decrease of left ventricular outflow tract (LVOT) gradient after drug administration” value in the series on patients with HOCM [5] (HOCM patients, Example 3) was “about 10 mmHg”.
